Test systems include 786-0 renal; EKVX NSCLC; HCT-15 colon; LOX IMVI melanoma; NCI-H522 lung; PC-3 prostate; SF-268 CNS; SF-295 CNS; UACC-257 melanoma; UACC-62 melanoma; MALME-3M melanoma; OVCAR-4 ovarian.
Common to all, as to experiment: DTP human tumour cell line panel, 48 h

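Results reflect a 48-hour exposure of cells in 96-well plates to compound at five concentrations. TGI marks complete inhibition of growth.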 Some results are limits rather than exact numbers.

A word on the TGI: it is the concentration giving total growth inhibition. `CN(C)Cc1cc(C(=O)/C=C/c2cccc(Cl)c2)cc(CN(C)C)c1O`: the TGI with 786-0 renal stood at 15.7 µM; in the test with EKVX NSCLC, 25.4 µM; in the test with HCT-15 colon, 12.7 µM; with LOX IMVI melanoma, 10.9 µM; in the test on NCI-H522 lung it was 33 µM; in the test with PC-3 prostate it was 22.8 µM. The TGI with SF-268 CNS is 24.1 µM; with SF-295 CNS it was 27 µM; in the test on UACC-257 melanoma, 19.9 µM; in the test with UACC-62 melanoma, 22.3 µM.

Take `O=[N+]([O-])c1ccc2c(Nc3ccccc3-c3ccccc3Nc3c4ccccc4nc4cc([N+](=O)[O-])ccc34)c3ccccc3nc2c1`: the TGI in the test with 786-0 renal came out at 13.4 µM; in the test on EKVX NSCLC it was 43 µM; in the test with HCT-15 colon, 17.6 µM; with LOX IMVI melanoma, 47.4 µM; in the test with MALME-3M melanoma, 50.2 µM; in the test with NCI-H522 lung, 17.4 µM. Also, the TGI is 57.2 µM in the test on OVCAR-4 ovarian; 6.61 µM with PC-3 prostate; 49.8 µM with SF-268 CNS; 60.5 µM with SF-295 CNS; 49.8 µM in the test on UACC-257 melanoma; 11.5 µM in the test with UACC-62 melanoma.

Consider `COC(=O)/C=C/c1cc(OC)c2oc(-c3ccc(OC)c(OC)c3)c(C(=O)OC)c2c1`, for which the TGI with 786-0 renal, in the test on EKVX NSCLC, in the test on HCT-15 colon, in the test on LOX IMVI melanoma, in the test with MALME-3M melanoma and in the test on OVCAR-4 ovarian was more than 100 µM throughout. In addition, the TGI with PC-3 prostate, with SF-268 CNS, in the test with SF-295 CNS, with UACC-257 melanoma and in the test on UACC-62 melanoma was more than 100 µM each time.

With `COc1cc(OC)c2c(O)c(S(=O)(=O)c3ccc(C)cc3)c(=O)oc2c1`, the TGI with 786-0 renal, in the test on EKVX NSCLC, in the test on HCT-15 colon, in the test with MALME-3M melanoma, with NCI-H522 lung and in the test on OVCAR-4 ovarian was more than 100 µM in each case. Also, the TGI with PC-3 prostate, in the test with SF-268 CNS, with SF-295 CNS, with UACC-257 melanoma and in the test on UACC-62 melanoma was more than 100 µM throughout.

As to `CCn1c2ccc(O)c(C(=O)OC)c2c2cc3ccccc3c(O)c21`, the TGI in the test with 786-0 renal was found to be 30.7 µM; in the test with EKVX NSCLC, 67.4 µM; with HCT-15 colon it was 56 µM; in the test with MALME-3M melanoma it was 20.7 µM; with NCI-H522 lung, 41.2 µM; in the test with OVCAR-4 ovarian it was 75.1 µM. Moreover, the concentration for total growth inhibition (TGI) is 78.8 µM in the test on PC-3 prostate; 63.6 µM in the test on SF-268 CNS; 64.5 µM in the test on SF-295 CNS; more than 100 µM with UACC-257 melanoma; more than 100 µM with UACC-62 melanoma.

Regarding `COc1cc2c(cc1C)NC(=O)/C2=C\c1ccncc1`, the TGI in the test with 786-0 renal is 18.8 µM; in the test with EKVX NSCLC, 25.8 µM; with HCT-15 colon, 16 µM; in the test with MALME-3M melanoma, 32.1 µM; in the test with NCI-H522 lung, 9.53 µM; in the test on OVCAR-4 ovarian, more than 100 µM. Besides, the TGI in the test with PC-3 prostate is more than 100 µM; with SF-268 CNS, 56.9 µM; in the test with SF-295 CNS, 19.1 µM; with UACC-257 melanoma it was 26.7 µM; in the test with UACC-62 melanoma it was 21.1 µM.

Take `Nc1ccc(C(=O)NN2C(=O)C(Cl)C2c2cccc(O)c2)cc1` (configuration not stated): the TGI came out at 29.5 µM in the test on 786-0 renal; 46.6 µM with EKVX NSCLC; 25.3 µM in the test with HCT-15 colon; 16.2 µM in the test with LOX IMVI melanoma; 36.7 µM in the test on MALME-3M melanoma; 3.29 µM with NCI-H522 lung. For the same molecule, the TGI in the test with OVCAR-4 ovarian worked out at 34 µM; in the test on SF-268 CNS it was 17 µM; in the test on SF-295 CNS it was 35.2 µM; in the test on UACC-257 melanoma it was 41.7 µM; in the test on UACC-62 melanoma it was 32 µM.

With `Cc1nn(C)c2nc3ccc(Cl)cc3c(-c3ccccc3)c12`, the TGI in the test with 786-0 renal, in the test with EKVX NSCLC, in the test with HCT-15 colon, in the test with MALME-3M melanoma, with NCI-H522 lung and in the test on OVCAR-4 ovarian was more than 100 µM each time. Also, the TGI in the test on PC-3 prostate, with SF-268 CNS, in the test on SF-295 CNS, with UACC-257 melanoma and in the test on UACC-62 melanoma was more than 100 µM each time.

Regarding `CC(=O)Nc1ccc(C(=O)NN2C(=O)C(Cl)C2c2ccc(O)cc2)cc1` (configuration not stated), the TGI with 786-0 renal, in the test on EKVX NSCLC, in the test on HCT-15 colon, in the test on LOX IMVI melanoma, with MALME-3M melanoma and in the test on NCI-H522 lung was more than 100 µM each time. The TGI with OVCAR-4 ovarian, in the test on SF-268 CNS, in the test on SF-295 CNS, in the test with UACC-257 melanoma and in the test on UACC-62 melanoma was more than 100 µM in each case.

For the molecule `O/N=C1/C2CC3CC1(c1ccccc1)CC(/C3=N/O)/C2=N\O` (configuration not stated), the TGI in the test on 786-0 renal, with EKVX NSCLC, in the test on HCT-15 colon, in the test with LOX IMVI melanoma, in the test with MALME-3M melanoma and in the test on NCI-H522 lung was more than 100 µM each time. Also, the TGI with OVCAR-4 ovarian, with PC-3 prostate, with SF-295 CNS, with UACC-257 melanoma and with UACC-62 melanoma was more than 100 µM in each case.

As to `COc1cc(/C=N\NC(=O)C[N+](C)(C)C)cc(OC)c1OC`, the TGI in the test on 786-0 renal, in the test on HCT-15 colon, in the test with LOX IMVI melanoma, in the test on MALME-3M melanoma, in the test on NCI-H522 lung and with OVCAR-4 ovarian was more than 10 µM throughout. In addition, the TGI in the test on PC-3 prostate, in the test on SF-268 CNS, in the test on SF-295 CNS, with UACC-257 melanoma and in the test with UACC-62 melanoma was more than 10 µM in each case.

On to `Cc1ccnc(NC(=S)Nc2cccc(Cl)c2)c1`, for which the TGI was more than 100 µM in the test on 786-0 renal; more than 100 µM with EKVX NSCLC; more than 100 µM in the test with HCT-15 colon; more than 100 µM with LOX IMVI melanoma; 9.85 µM in the test with NCI-H522 lung; more than 100 µM in the test with OVCAR-4 ovarian. The TGI in the test with PC-3 prostate, with SF-268 CNS, in the test with SF-295 CNS, in the test on UACC-257 melanoma and in the test on UACC-62 melanoma was more than 100 µM in each case.
